This is an account of results in PubChem BioAssay AID179 (DTP/NCI, 2004).

The test system of this experiment is CEM cells HIV-1 protection, formazan growth assay. Description: NCI AIDS Antiviral Assay. Conditions: for IC50: measured here: growth of uninfected CEM cells. In outline: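 Human CEM cells, uninfected and HIV-1-infected, received five drug concentrations, and growth was read by soluble formazan assay. Compounds giving at least 50% protection were retested; reproducible 100% protection defined confirmed active.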

Activity calls are given as the source filed them.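 Rule for the calls: active = compounds giving half or more protection of infected cells from virus-caused growth loss, again on retest; inactive = the rest.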

For the molecule `C[C@H](N)C(=O)N[C@@H]1[C@H]2C(=C(O)C[C@@H](O)[C@@H]2O)C(=O)O[C@]1(C)C(Cl)Cl`, the EC50 was above 67.6 µM and the 50% inhibitory concentration (IC50) is 0.224 µM.
On to `NC(=S)NN/C=C(\C=Nc1ccccc1)[N+](=O)[O-]`, for which the EC50 was above 355 µM and the IC50 was 178 µM.
For the molecule `COc1ccc(CNc2nc3cc(C(F)(F)F)ccc3nc2C(=O)O)cc1`, the EC50 is above 200 µM and the IC50 was 38.9 µM.
For the molecule `S=C(/N=N/c1[nH]c2ccccc2c1NNC(=S)NC12CC3CC(CC(C3)C1)C2)NC12CC3CC(CC(C3)C1)C2`, the result was inactive.
In the case of `C#CCN(N=O)C(=O)NCCCCC(NC(=O)OCc1ccccc1)C(=O)OCc1ccccc1` (stereo unspecified), the EC50 is above 28.2 µM and the half-inhibitory concentration (IC50) was above 28.2 µM.
For `Cc1cc(NC(=O)C(=O)Cc2nc3ccccc3s2)ccc1Cl`, the EC50 is above 20.9 µM and the IC50 is above 20.9 µM.
`Cc1ccc(N(C)S(=O)(=O)c2ccccc2[N+](=O)[O-])cc1`: the EC50 is 10.7 µM and the half-inhibitory concentration (IC50) is 36.3 µM.
`CC1(C)Oc2ccccc2[N+]([O-])=C1c1ccccc1`: the EC50 is above 141 µM and the IC50 was above 141 µM.
Turning to `COC1/C=C/OC2(C)Oc3c(C)c(O)c4c(O)c(c(/C=N/N5C(C)CN(Cc6ccccc6C#N)CC5C)c(O)c4c3C2=O)NC(=O)/C(C)=C\C=C\C(C)C(O)C(C)C(O)C(C)C(OC(C)=O)C1C` (stereo unspecified), the EC50 was above 200 µM and the IC50 was 7.41 µM.
In the case of `O=C1NC(=O)C(C(=O)C(=O)Nc2cccc(C(F)(F)F)c2)C(=O)N1`, the EC50 is above 39.8 µM and the IC50 is above 39.8 µM.
For the molecule `COC(=O)/C=C(C)/C=C\COC1CCCCO1` (stereo unspecified), the EC50 was above 200 µM and the concentration for half-maximal inhibition (IC50) is above 200 µM.
Turning to `O=C1C(CN(Cc2ccccc2)Cc2ccccc2)CCCC1CN(Cc1ccccc1)Cc1ccccc1` (stereo unspecified), the EC50 was above 26.3 µM, the outcome was inactive and the half-inhibitory concentration (IC50) was above 26.3 µM.
For the molecule `S=C(NNC1=NCCCCN1)Nc1ccccc1`, the EC50 was above 200 µM and the half-maximal inhibitory concentration (IC50) was 112 µM.
Regarding `CCN(CC)c1ccc2cc3ccc(=[N+](CC)CC)cc-3oc2c1`, the EC50 was above 501 µM and the IC50 is 0.158 µM.
In the same order, the values of `COC(=O)CC1(C(=O)OC)Nc2cc(Cl)c(Cl)cc2S(=O)(=O)N1O` (stereo unspecified) are 69.2 µM and 91.2 µM.
For `CCc1ccc(N2C(=O)C(CC(=O)O)SC23C(=O)N(Cc2ccccc2)c2ccccc23)cc1` (stereo unspecified), the EC50 was above 525 µM and the 50% inhibitory concentration (IC50) came to 28.8 µM.
On the same counts, the results for `COc1ccc(/C=C/C(=O)Oc2ccc(/C=C3\CCCCC3=O)cc2)cc1` are above 200 µM and 1.05 µM.
Turning to `O=C(OCCN1CCOCC1)c1cc2ccccc2oc1=O`, the EC50 is above 741 µM and the half-inhibitory concentration (IC50) is above 741 µM.
In the case of `Nc1nc(Cl)cc(OCC2(CO)CCC2)n1`, the EC50 was above 200 µM and the concentration for half-maximal inhibition (IC50) amounted to 135 µM.
In the same order, the values of `CC1(C)CC(=O)c2c(-c3ccc(Cl)cc3)c(C#N)c(=S)n(C3OC(CO)C(O)C(O)C3O)c2C1` (stereo unspecified) are above 200 µM and 31.6 µM.
For `N#Cc1c(-c2ccc([N+](=O)[O-])cc2)c(=O)oc2cc(O)ccc12`, the EC50 was above 100 µM and the IC50 is 74.1 µM.
On to `CCCc1cc(=O)oc2c3c(c4c(c12)OC(N)=C(C#N)C4c1ccccc1)O[C@H](C)[C@@H](C)C3=O` (stereo partly specified), for which the EC50 was above 200 µM and the half-maximal inhibitory concentration (IC50) is 8.71 µM.
As to `O=C1NC(=S)N/C1=C\c1ccco1`, the EC50 was above 200 µM and the 50% inhibitory concentration (IC50) stood at 105 µM.
For `ClC(=C(c1ccc(OC2CCCCO2)cc1)c1ccc(OC2CCCCO2)cc1)c1ccccc1` (stereo unspecified), the EC50 was above 100 µM and the IC50 was determined as 87.1 µM.
`COc1c(C(=O)c2ccc([N+](=O)[O-])cc2)cc(C(C)(C)C)cc1C(C)(C)C`: the result was inactive.
Turning to `N#Cc1nc(-c2cccnc2)oc1N`, the EC50 is above 200 µM and the half-inhibitory concentration (IC50) was above 200 µM.
In the case of `N#CC(C(=O)CCC(=O)Nc1ccc(Cl)cc1)c1ccc(Cl)cc1` (stereo unspecified), the outcome was inactive.
Turning to `CC1CCC2(CC1)CC(=O)N(N1CCOCC1)C(=O)C2`, the EC50 is above 200 µM and the IC50 is above 200 µM.
As to `O=C(NC/C(Br)=C/Br)Nc1cnc2ccccc2c1`, the EC50 is above 200 µM and the half-maximal inhibitory concentration (IC50) was determined as 81.3 µM.
On to `Cc1c(C(=O)C/C(=N/NC(=O)c2ccccc2O)C(=O)Nc2ccccc2C(C)C)[n+](=O)c2ccccc2n1[O-]`, for which the EC50 was above 6.92 µM and the half-maximal inhibitory concentration (IC50) is above 6.92 µM.
`CC(C)c1cc2c(O)c(c1)Cc1cc(C(C)C)cc(c1O)Cc1cc(C(C)C)cc(c1O)Cc1cc(C(C)C)cc(c1O)C2`: the EC50 was above 6.31 µM and the half-inhibitory concentration (IC50) is above 6.31 µM.
With `Cc1c2ccncc2cc2c1sc1ccncc12`, the EC50 is above 39.8 µM and the IC50 came to 0.589 µM.
Consider `O=C(O)CCC1CCc2cccc3occ1c23` (stereo unspecified), for which the outcome was inactive.
As to `COC1=CC(=O)C2C(C1=O)[C@@H]1c3ccccc3C[C@H]21` (stereo partly specified), the EC50 was above 195 µM and the IC50 is above 100 µM.
For the molecule `C/C=C1\CN2CCC34c5ccccc5N(C)C35OCC4(C(=O)OC)C1CC25` (stereo unspecified), the EC50 is above 83.2 µM and the 50% inhibitory concentration (IC50) worked out at 25.7 µM.
`Cc1[nH]ccc2c1[nH]c1cc(=O)ccc12`: the EC50 is above 1070 µM and the IC50 came out at 16.6 µM.
On the same counts, the results for `CC[C@H]1C2OC(=O)[C@H](C)C2[C@@]2(O)C[C@@H]([C@@H]3C[C@H](C)C(=O)O3)N3CCCC[C@@]12C3=O` (stereo partly specified) are above 200 µM and above 200 µM.
Consider `CN(/N=C/C=N/N(C)C1=NCCCCN1)C1=NCCCCN1`, for which the EC50 was above 200 µM and the half-inhibitory concentration (IC50) is above 200 µM.
As for `Cc1cc(NS(=O)(=O)c2ccc(Nc3c4ccccc4nc4ccc(C(=O)Nc5ccc(S(=O)(=O)N=C(N)N)cc5)cc34)cc2)no1`, the EC50 was above 200 µM and the IC50 was determined as 110 µM.
As for `CC(C)(C)NC(=O)C12C3C4C1C1C2C3C41C(=O)NC(C)(C)C` (stereo unspecified), the result was inactive.
On to `Cc1cc2n[n+]3[n-]cc(-c4ccccc4)n3c2cc1[N+](=O)[O-]`, for which the EC50 was above 200 µM and the IC50 is above 200 µM.
Turning to `CSc1n[nH]c(N)c1C(=O)Nc1ccccc1`, the EC50 is above 186 µM and the IC50 worked out at 117 µM.
On the same counts, the results for `COc1cccc(NC(=O)C(C#N)=C(SC)SC)c1` are above 200 µM and 7.94 µM.
Take `CCCCCC/C(CC(=O)CCC(=O)NCCc1ccccc1)=N\NC(=O)c1ccc2ccccc2c1O`: the EC50 was above 251 µM and the IC50 was determined as 14.5 µM.
On to `O=S(=O)(/C=C/CS(=O)(=O)c1ccccc1)c1ccccc1`, for which the outcome was inactive.
In the case of `[Cu+2].[O-]/N=C/c1ccc(O)c(O)c1[O-].[O-]/N=C/c1ccc(O)c(O)c1[O-]`, the outcome was inactive.
Take `Cn1c(=O)sc2cc(C(=S)N3CCN(c4ccccc4)CC3)ccc21`: the concentration for a half-maximal effect (EC50) was 87.1 µM and the IC50 was found to be 107 µM.
In the case of `CCCc1cc(=O)oc2c3c(c4c(c12)OC(C)(C)C=C4)O[C@H](C)[C@@H](C)[C@@H]3O`, the EC50 was 4.68 µM and the IC50 amounted to 16.2 µM.
On the same counts, the results for `COC(=O)C1(C)OS(=O)(=O)c2ccccc21` (stereo unspecified) are above 537 µM and above 537 µM.
In the same order, the values of `Nc1ccccc1C(=O)/C=C/c1ccccc1O` are above 74.1 µM and 52.5 µM.
As to `COC(=O)C1CCC(=O)N1CN(C(C)=O)c1ccccc1Cl` (stereo unspecified), the EC50 is above 200 µM and the 50% inhibitory concentration (IC50) is above 200 µM.
